Laboratory results published in PubChem BioAssay AID2060599 (Molecular Pharmacology Branch, DTP, NCI, 2025).

Test system: 817829-284-R-J1-PDC complex spheroids, viability
Test: Anticancer human tumor 817829-284-R-J1-PDC patient-derived colon adenocarcinoma cell line growth inhibition [CLK]
Settings: curve of first compound; second compound 10 µM
Summary of the method: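 Multi-cell-type spheroids combined patient-derived tumor cells with HUVEC endothelial cells and human mesenchymal stem cells. Paired agents were dosed in half-log steps down from about clinical Cmax, or from 10 microM where Cmax was unknown.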
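Further: spheroids exposed to the agents for seven days before readout.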

| SMILES | IC50 |
| --- | --- |
| C=C(F)C(=O)N1CCN(c2nc(OCC3CCCN3C)nc3c2CCN(c2cccc4cccc(Cl)c24)C3)CC1CC#N (stereo unspecified) + CNC(=O)c1ccc(Nc2nc(OC3CCCC3)c3c(-c4ccc5nc(C)oc5c4)c[nH]c3n2)c(OC)c1 | < 31.6 nM |
| C=CC(=O)N1CCN(c2nc(=O)n(-c3c(C)ccnc3C(C)C)c3nc(-c4c(O)cccc4F)c(F)cc23)C(C)C1 (stereo unspecified) + CNC(=O)c1ccc(Nc2nc(OC3CCCC3)c3c(-c4ccc5nc(C)oc5c4)c[nH]c3n2)c(OC)c1 | < 31.6 nM |
| CCCS(=O)(=O)Nc1ccc(F)c(C(=O)c2c[nH]c3ncc(-c4ccc(Cl)cc4)cc23)c1F + CNC(=O)c1ccc(Nc2nc(OC3CCCC3)c3c(-c4ccc5nc(C)oc5c4)c[nH]c3n2)c(OC)c1 | < 31.6 nM |
| COC1C=CCC(C)C(C)S(=O)(=O)NC(=O)c2ccc3c(c2)N(CC2CCC21)CC1(CCCc2cc(Cl)ccc21)CO3 (stereo unspecified) + CNC(=O)c1ccc(Nc2nc(OC3CCCC3)c3c(-c4ccc5nc(C)oc5c4)c[nH]c3n2)c(OC)c1 | < 31.6 nM |

Same assay, conditions: second compound 0.0316 µM; first compound 0.0316 µM; stronger effect = lower value

| SMILES | viability, T/C |
| --- | --- |
| C#Cc1c(F)ccc2cc(O)cc(-c3ncc4c(N5CC6CCC(C5)N6)nc(OCC56CCCN5CC(F)C6)nc4c3F)c12 (stereo unspecified) + CNC(=O)c1ccc(Nc2nc(OC3CCCC3)c3c(-c4ccc5nc(C)oc5c4)c[nH]c3n2)c(OC)c1 | 34.1% |
| C=C(F)C(=O)N1CCN(c2nc(OCC3CCCN3C)nc3c2CCN(c2cccc4cccc(Cl)c24)C3)CC1CC#N (stereo unspecified) + CNC(=O)c1ccc(Nc2nc(OC3CCCC3)c3c(-c4ccc5nc(C)oc5c4)c[nH]c3n2)c(OC)c1 | 19.9% |
| C=CC(=O)N1CCN(c2nc(=O)n(-c3c(C)ccnc3C(C)C)c3nc(-c4c(O)cccc4F)c(F)cc23)C(C)C1 (stereo unspecified) + CNC(=O)c1ccc(Nc2nc(OC3CCCC3)c3c(-c4ccc5nc(C)oc5c4)c[nH]c3n2)c(OC)c1 | 35.9% |
| CCCS(=O)(=O)Nc1ccc(F)c(C(=O)c2c[nH]c3ncc(-c4ccc(Cl)cc4)cc23)c1F + CNC(=O)c1ccc(Nc2nc(OC3CCCC3)c3c(-c4ccc5nc(C)oc5c4)c[nH]c3n2)c(OC)c1 | 31.8% |
| COC1C=CCC(C)C(C)S(=O)(=O)NC(=O)c2ccc3c(c2)N(CC2CCC21)CC1(CCCc2cc(Cl)ccc21)CO3 (stereo unspecified) + CNC(=O)c1ccc(Nc2nc(OC3CCCC3)c3c(-c4ccc5nc(C)oc5c4)c[nH]c3n2)c(OC)c1 | 31.3% |

Same assay, conditions: second compound 0.0316 µM; first compound 0.1 µM; stronger effect = lower value

| SMILES | viability, T/C |
| --- | --- |
| C#Cc1c(F)ccc2cc(O)cc(-c3ncc4c(N5CC6CCC(C5)N6)nc(OCC56CCCN5CC(F)C6)nc4c3F)c12 (stereo unspecified) + CNC(=O)c1ccc(Nc2nc(OC3CCCC3)c3c(-c4ccc5nc(C)oc5c4)c[nH]c3n2)c(OC)c1 | 43.8% |
| C=C(F)C(=O)N1CCN(c2nc(OCC3CCCN3C)nc3c2CCN(c2cccc4cccc(Cl)c24)C3)CC1CC#N (stereo unspecified) + CNC(=O)c1ccc(Nc2nc(OC3CCCC3)c3c(-c4ccc5nc(C)oc5c4)c[nH]c3n2)c(OC)c1 | 42.3% |
| C=CC(=O)N1CCN(c2nc(=O)n(-c3c(C)ccnc3C(C)C)c3nc(-c4c(O)cccc4F)c(F)cc23)C(C)C1 (stereo unspecified) + CNC(=O)c1ccc(Nc2nc(OC3CCCC3)c3c(-c4ccc5nc(C)oc5c4)c[nH]c3n2)c(OC)c1 | 44.3% |
| CCCS(=O)(=O)Nc1ccc(F)c(C(=O)c2c[nH]c3ncc(-c4ccc(Cl)cc4)cc23)c1F + CNC(=O)c1ccc(Nc2nc(OC3CCCC3)c3c(-c4ccc5nc(C)oc5c4)c[nH]c3n2)c(OC)c1 | 23.5% |
| COC1C=CCC(C)C(C)S(=O)(=O)NC(=O)c2ccc3c(c2)N(CC2CCC21)CC1(CCCc2cc(Cl)ccc21)CO3 (stereo unspecified) + CNC(=O)c1ccc(Nc2nc(OC3CCCC3)c3c(-c4ccc5nc(C)oc5c4)c[nH]c3n2)c(OC)c1 | 51.1% |

Same assay, conditions: second compound 0.0316 µM; first compound 0.316 µM; stronger effect = lower value

| SMILES | viability, T/C |
| --- | --- |
| C#Cc1c(F)ccc2cc(O)cc(-c3ncc4c(N5CC6CCC(C5)N6)nc(OCC56CCCN5CC(F)C6)nc4c3F)c12 (stereo unspecified) + CNC(=O)c1ccc(Nc2nc(OC3CCCC3)c3c(-c4ccc5nc(C)oc5c4)c[nH]c3n2)c(OC)c1 | 24.7% |
| C=C(F)C(=O)N1CCN(c2nc(OCC3CCCN3C)nc3c2CCN(c2cccc4cccc(Cl)c24)C3)CC1CC#N (stereo unspecified) + CNC(=O)c1ccc(Nc2nc(OC3CCCC3)c3c(-c4ccc5nc(C)oc5c4)c[nH]c3n2)c(OC)c1 | 23.4% |
| C=CC(=O)N1CCN(c2nc(=O)n(-c3c(C)ccnc3C(C)C)c3nc(-c4c(O)cccc4F)c(F)cc23)C(C)C1 (stereo unspecified) + CNC(=O)c1ccc(Nc2nc(OC3CCCC3)c3c(-c4ccc5nc(C)oc5c4)c[nH]c3n2)c(OC)c1 | 34.6% |
| CCCS(=O)(=O)Nc1ccc(F)c(C(=O)c2c[nH]c3ncc(-c4ccc(Cl)cc4)cc23)c1F + CNC(=O)c1ccc(Nc2nc(OC3CCCC3)c3c(-c4ccc5nc(C)oc5c4)c[nH]c3n2)c(OC)c1 | 33.4% |
| COC1C=CCC(C)C(C)S(=O)(=O)NC(=O)c2ccc3c(c2)N(CC2CCC21)CC1(CCCc2cc(Cl)ccc21)CO3 (stereo unspecified) + CNC(=O)c1ccc(Nc2nc(OC3CCCC3)c3c(-c4ccc5nc(C)oc5c4)c[nH]c3n2)c(OC)c1 | 31.1% |

Same assay, conditions: second compound 0.0316 µM; first compound 1 µM; stronger effect = lower value

| SMILES | viability, T/C |
| --- | --- |
| C#Cc1c(F)ccc2cc(O)cc(-c3ncc4c(N5CC6CCC(C5)N6)nc(OCC56CCCN5CC(F)C6)nc4c3F)c12 (stereo unspecified) + CNC(=O)c1ccc(Nc2nc(OC3CCCC3)c3c(-c4ccc5nc(C)oc5c4)c[nH]c3n2)c(OC)c1 | 22.7% |
| C=C(F)C(=O)N1CCN(c2nc(OCC3CCCN3C)nc3c2CCN(c2cccc4cccc(Cl)c24)C3)CC1CC#N (stereo unspecified) + CNC(=O)c1ccc(Nc2nc(OC3CCCC3)c3c(-c4ccc5nc(C)oc5c4)c[nH]c3n2)c(OC)c1 | 23.3% |
| C=CC(=O)N1CCN(c2nc(=O)n(-c3c(C)ccnc3C(C)C)c3nc(-c4c(O)cccc4F)c(F)cc23)C(C)C1 (stereo unspecified) + CNC(=O)c1ccc(Nc2nc(OC3CCCC3)c3c(-c4ccc5nc(C)oc5c4)c[nH]c3n2)c(OC)c1 | 24.2% |
| CCCS(=O)(=O)Nc1ccc(F)c(C(=O)c2c[nH]c3ncc(-c4ccc(Cl)cc4)cc23)c1F + CNC(=O)c1ccc(Nc2nc(OC3CCCC3)c3c(-c4ccc5nc(C)oc5c4)c[nH]c3n2)c(OC)c1 | 27% |
| COC1C=CCC(C)C(C)S(=O)(=O)NC(=O)c2ccc3c(c2)N(CC2CCC21)CC1(CCCc2cc(Cl)ccc21)CO3 (stereo unspecified) + CNC(=O)c1ccc(Nc2nc(OC3CCCC3)c3c(-c4ccc5nc(C)oc5c4)c[nH]c3n2)c(OC)c1 | 47.8% |

Same assay, conditions: second compound 0.0316 µM; first compound 3.16 µM; stronger effect = lower value

| SMILES | viability, T/C |
| --- | --- |
| C#Cc1c(F)ccc2cc(O)cc(-c3ncc4c(N5CC6CCC(C5)N6)nc(OCC56CCCN5CC(F)C6)nc4c3F)c12 (stereo unspecified) + CNC(=O)c1ccc(Nc2nc(OC3CCCC3)c3c(-c4ccc5nc(C)oc5c4)c[nH]c3n2)c(OC)c1 | 19.7% |
| C=C(F)C(=O)N1CCN(c2nc(OCC3CCCN3C)nc3c2CCN(c2cccc4cccc(Cl)c24)C3)CC1CC#N (stereo unspecified) + CNC(=O)c1ccc(Nc2nc(OC3CCCC3)c3c(-c4ccc5nc(C)oc5c4)c[nH]c3n2)c(OC)c1 | 17.6% |
